Values of other authors as cited in US20150174247A1, “ORAL PHARMACEUTICAL PREPARATION OF ARIPIPRAZOLE” (MARUISHI PHARMACEUTICAL CO., LTD., priority 2012, published 2015).

O=C1CCc2ccc(OCCCCN3CCN(c4cccc(Cl)c4Cl)CC3)cc2N1 [aripiprazole, 7-{4-[4-(2,3-dichlorophenyl)-1-piperazinyl]-butoxy}-3,4-dihydro-2(1H)-quinolinone]
solubility in acidic range (acidic range (pH 4.5 or less)): highly soluble | solubility in neutral or higher pH range (neutral (pH 5) or higher pH range): less soluble
